In experiment [1] the target is PDE11 (Homo sapiens, UniProt Q9HCR9). Put plainly: IMAP fluorescence polarization PDE assay. The experiment is classed as biochemical. On the technique in general: Polarisation of emitted light reports the rotation of a fluorescent probe.
For experiment [2], the target named is PDE5 (Homo sapiens, UniProt O76074). Description: IMAP fluorescence polarization PDE assay. The class given is biochemical.

The values that follow come from paper PMC4980831 (Arzneimittel-Forschung, 2009).

PDE11, sequence (Q9HCR9 whole entry): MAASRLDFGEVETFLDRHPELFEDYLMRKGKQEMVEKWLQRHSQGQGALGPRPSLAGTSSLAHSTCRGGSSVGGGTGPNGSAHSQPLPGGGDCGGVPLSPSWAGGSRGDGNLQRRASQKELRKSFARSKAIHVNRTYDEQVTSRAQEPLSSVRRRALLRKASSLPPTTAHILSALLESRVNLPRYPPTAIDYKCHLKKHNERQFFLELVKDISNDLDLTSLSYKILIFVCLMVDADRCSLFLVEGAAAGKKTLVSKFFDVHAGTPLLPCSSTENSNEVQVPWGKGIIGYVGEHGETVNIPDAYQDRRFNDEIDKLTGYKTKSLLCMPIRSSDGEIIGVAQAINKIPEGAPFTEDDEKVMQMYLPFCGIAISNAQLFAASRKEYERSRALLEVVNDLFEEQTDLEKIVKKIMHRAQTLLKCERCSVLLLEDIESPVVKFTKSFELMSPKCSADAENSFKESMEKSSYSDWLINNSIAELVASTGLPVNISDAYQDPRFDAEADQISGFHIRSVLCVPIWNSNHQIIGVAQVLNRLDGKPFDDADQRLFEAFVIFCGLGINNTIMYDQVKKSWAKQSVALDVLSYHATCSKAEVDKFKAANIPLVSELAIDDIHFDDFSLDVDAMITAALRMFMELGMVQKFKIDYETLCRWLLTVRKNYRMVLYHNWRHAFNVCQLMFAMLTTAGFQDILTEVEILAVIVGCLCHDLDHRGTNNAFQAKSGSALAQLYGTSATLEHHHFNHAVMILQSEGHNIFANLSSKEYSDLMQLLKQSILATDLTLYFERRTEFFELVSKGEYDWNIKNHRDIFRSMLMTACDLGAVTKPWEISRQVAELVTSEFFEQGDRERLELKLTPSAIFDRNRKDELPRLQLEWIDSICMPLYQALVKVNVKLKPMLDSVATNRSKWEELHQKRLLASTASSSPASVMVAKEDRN

The IC50 is the concentration that gives 50% inhibition. In the case of `CC1=C(CC(=O)O)c2cc(F)ccc2/C1=C\c1ccc(S(C)(=O)=O)cc1` [Exisulind, reference compound], the IC50 is above 300 µM in experiment [1] and 295 ± 1.11 µM in experiment [2].
`COC(=O)[C@H]1Cc2c([nH]c3ccccc23)[C@@H](c2cc(OC)ccc2OC)N1` [I, Methyl (1R,3R)-1-(2,5-dimethoxyphenyl)-2,3,4,9-tetrahydro-1H-β-carboline-3-carboxylate]: the values for the IC50 in experiment [1] and in experiment [2] were above 100 µM and 3.9 ± 1.09 µM, respectively.
In the case of `COC(=O)[C@H]1Cc2c([nH]c3ccccc23)[C@H](c2cc(OC)ccc2OC)N1` [II, Methyl (1S,3R)-1-(2,5-dimethoxyphenyl)-2,3,4,9-tetrahydro-1H-β-carboline-3-carboxylate], the IC50 in experiment [1] and in experiment [2] was above 100 µM in each case.
For the compound `COC(=O)[C@@H]1Cc2c([nH]c3ccccc23)[C@H](c2cc(OC)ccc2OC)N1` [III, Methyl (1S,3S)-1-(2,5-dimethoxyphenyl)-2,3,4,9-tetrahydro-1H-β-carboline-3-carboxylate], the concentration for half-maximal inhibition (IC50) is above 100 µM in experiment [1] and 14.3 ± 1.09 µM in experiment [2].
Consider `COC(=O)[C@@H]1Cc2c([nH]c3ccccc23)[C@@H](c2cc(OC)ccc2OC)N1` [IV, Methyl (1R,3S)-1-(2,5-dimethoxyphenyl)-2,3,4,9-tetrahydro-1H-β-carboline-3-carboxylate], for which the IC50 in experiment [1] was above 100 µM; in experiment [2] it was 17.4 ± 1.09 µM.
Regarding `CCN1C(=O)[C@@H]2Cc3c([nH]c4ccccc34)[C@@H](c3cc(OC)ccc3OC)N2C1=S` [IX, (5R,11aS)-2-ethyl-1-oxo-5-(2,5-dimethoxyphe-nyl)-5,6,11,11a-tetrahydro-1H-imidazo[1′,5′:1,6] pyrido[3,4-b]indole-3 (2H)-thione], the results for the IC50 in experiment [1] and in experiment [2] were above 100 µM and 78.6 ± 1.14 µM, respectively.
As for `CCN1C(=O)[C@H]2Cc3c([nH]c4ccccc34)[C@@H](c3cc(OC)ccc3OC)N2C1=O` [V, (5R,11aR)-2-Ethyl-5-(2,5-dimethoxyphenyl)-5,6,11,11a-tetrahydro-1H-imidazo[1′,5′:1,6]pyrido [3,4-b]indole-1,3(2H)-dione], the results for the IC50 in experiment [1] and in experiment [2] were above 100 µM and 5 ± 1.14 µM, respectively.
For `CCN1C(=O)[C@H]2Cc3c([nH]c4ccccc34)[C@H](c3cc(OC)ccc3OC)N2C1=O` [VI, (5S,11aR)-2-Ethyl-5-(2,5-dimethoxyphenyl)-5,6,11,11^a-tetrahydro-1H-imidazo[1′,5′:1,6]pyrido [3,4-b]indole-1,3(2H)-dione] the same measures were above 100 µM and above 100 µM.
For `CCN1C(=O)[C@@H]2Cc3c([nH]c4ccccc34)[C@H](c3cc(OC)ccc3OC)N2C1=O` [VII, (5S,11aS)-2-Ethyl-5-(2,5-dimethoxyphenyl)-5,6,11,11a-tetrahydro-1H-imidazo[1′,5′:1,6]pyrido [3,4-b]indole-1,3(2H)-dione], the IC50 in experiment [1] and in experiment [2] was above 100 µM each time.
As to `CCN1C(=O)[C@@H]2Cc3c([nH]c4ccccc34)[C@@H](c3cc(OC)ccc3OC)N2C1=O` [VIII, (5R,11aS)-2-Ethyl-5-(2,5-dimethoxyphenyl)-5,6,11,11a-tetrahydro-1H-imidazo[1′,5′:1,6]pyrido [3,4-b]indole-1,3(2H)-dione], the IC50 is above 100 µM in experiment [1] and 87.4 ± 1.1 µM in experiment [2].
As for `CCN1C(=O)[C@H]2Cc3c([nH]c4ccccc34)[C@H](c3cc(OC)ccc3OC)N2C1=S` [X, (5S,11aR)-2-ethyl-1-oxo-5-(2,5-dimethoxy-phenyl)-5,6,11,11a-tetrahydro-1H-imidazo [1′,5′:1,6]pyrido[3,4-b]indole-3 (2H)-thione], the IC50 in experiment [1] and in experiment [2] was above 100 µM each time.
